ChEMBL document CHEMBL1201862, “PubChem BioAssay data set” (2004)
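Step 1: Grow cells in 96-well plates. Step 2: Expose to compound for 48 hours at 5 concentrations. Step 3: Interpolate endpoints linearly; if unreached, use highest concentration. GI50 marks 50% less growth.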 Calls of active or inactive are those of the source. Cut-off read from the data, not from the text of the source: active = GI50 up to about 1.1 µM and inactive = higher.

Legend:
Experiment in all cases: growth of human tumour cells (NCI), 48 h
HCT-15 = system: HCT-15
NCI/ADR-RES = system: NCI/ADR-RES
786-0 = system: 786-0
OVCAR-8 = system: OVCAR-8
MDA-MB-435 = system: MDA-MB-435
DU-145 = system: DU-145
CAKI-1 = system: CAKI-1
HL-60 = system: HL-60
SW-620 = system: SW-620
UACC-62 = system: UACC-62
SF-268 = system: SF-268
HOP-62 = system: HOP-62
NCI-H23 = system: NCI-H23
SK-OV-3 = system: SK-OV-3
RXF 393 = system: RXF 393
MOLT-4 = system: MOLT-4
PC-3 = system: PC-3
K562 = system: K562
MDA-MB-231 = system: MDA-MB-231
T47D = system: T47D
SF-539 = system: SF-539
OVCAR-5 = system: OVCAR-5
A549 = system: A549
COLO 205 = system: COLO 205
SNB-19 = system: SNB-19
IGROV-1 = system: IGROV-1
A498 = system: A498
OVCAR-3 = system: OVCAR-3
BT-549 = system: BT-549
UACC-257 = system: UACC-257
KM12 = system: KM12
SK-MEL-5 = system: SK-MEL-5
SR = system: SR
M14 = system: M14
SN12C = system: SN12C
MCF7 = system: MCF7
ACHN = system: ACHN
NCI-H460 = system: NCI-H460
LOX IMVI = system: LOX IMVI
U-251 = system: U-251
SF-295 = system: SF-295
MDA-N = system: MDA-N
UO-31 = system: UO-31
HCT-116 = system: HCT-116
SK-MEL-2 = system: SK-MEL-2
Hs-578T = system: Hs-578T
HCC 2998 = system: HCC 2998
Malme-3M = system: Malme-3M
OVCAR-4 = system: OVCAR-4
CCRF-CEM = system: CCRF-CEM
HT-29 = system: HT-29
NCI-H226 = system: NCI-H226
TK-10 = system: TK-10
SNB-75 = system: SNB-75
SK-MEL-28 = system: SK-MEL-28
EKVX = system: EKVX
NCI-H522 = system: NCI-H522
RPMI-8226 = system: RPMI-8226
HOP-92 = system: HOP-92

c1ccc(C2C3=C(CCCC3)Nc3nnnn32)cc1 (stereo not given)
GI50 (HCT-15): > 100 µM
GI50 (NCI/ADR-RES): 98.9 µM (inactive)
GI50 (786-0): > 100 µM (inactive)
GI50 (OVCAR-8): > 100 µM (inactive)
GI50 (MDA-MB-435): 72.6 µM (inactive)
GI50 (DU-145): > 100 µM (inactive)
GI50 (CAKI-1): > 100 µM (inactive)
GI50 (HL-60): 33.1 µM (inactive)
GI50 (SW-620): > 100 µM (inactive)
GI50 (UACC-62): 56.2 µM (inactive)
GI50 (SF-268): 12.5 µM (inactive)
GI50 (HOP-62): > 100 µM (inactive)
GI50 (NCI-H23): > 100 µM (inactive)
GI50 (SK-OV-3): > 100 µM (inactive)
GI50 (RXF 393): 0.226 µM (active)
GI50 (MOLT-4): 53 µM (inactive)
GI50 (PC-3): 68.1 µM (inactive)
GI50 (K562): 32.4 µM (inactive)
GI50 (MDA-MB-231): > 100 µM (inactive)
GI50 (T47D): 25.4 µM (inactive)
GI50 (SF-539): > 100 µM (inactive)
GI50 (OVCAR-5): > 100 µM (inactive)
GI50 (A549): 64 µM (inactive)
GI50 (COLO 205): > 100 µM (inactive)
GI50 (SNB-19): > 100 µM (inactive)
GI50 (IGROV-1): > 100 µM (inactive)
GI50 (A498): 19.2 µM (inactive)
GI50 (OVCAR-3): 37.8 µM (inactive)
GI50 (BT-549): 34.8 µM (inactive)
GI50 (UACC-257): > 100 µM (inactive)
GI50 (KM12): > 100 µM (inactive)
GI50 (SK-MEL-5): 48.9 µM (inactive)
GI50 (SR): > 100 µM (inactive)
GI50 (M14): > 100 µM (inactive)
GI50 (SN12C): > 100 µM (inactive)
GI50 (MCF7): 13.8 µM (inactive)
GI50 (ACHN): 82.4 µM (inactive)
GI50 (NCI-H460): 12.9 µM (inactive)
GI50 (LOX IMVI): > 100 µM (inactive)
GI50 (U-251): > 100 µM (inactive)
GI50 (SF-295): 57.4 µM (inactive)
GI50 (MDA-N): 98.4 µM (inactive)
GI50 (UO-31): > 100 µM (inactive)
GI50 (HCT-116): > 100 µM (inactive)
GI50 (SK-MEL-2): 34.4 µM (inactive)
GI50 (Hs-578T): 64 µM (inactive)

CCOC(=O)C1(C(=O)OCC)OC(C)=NC1(C(=O)OC)C(=O)OC
GI50 (HCC 2998): > 100 µM (inactive)
GI50 (Malme-3M): > 100 µM (inactive)
GI50 (HCT-15): > 100 µM
GI50 (NCI/ADR-RES): > 100 µM (inactive)
GI50 (786-0): > 100 µM (inactive)
GI50 (OVCAR-8): > 100 µM (inactive)
GI50 (MDA-MB-435): > 100 µM (inactive)
GI50 (OVCAR-4): > 100 µM (inactive)
GI50 (CCRF-CEM): > 100 µM (inactive)
GI50 (DU-145): > 100 µM (inactive)
GI50 (CAKI-1): > 100 µM (inactive)
GI50 (HL-60): 1.15 µM (inactive)
GI50 (SW-620): > 100 µM (inactive)
GI50 (UACC-62): > 100 µM (inactive)
GI50 (SF-268): > 100 µM (inactive)
GI50 (HOP-62): > 100 µM (inactive)
GI50 (NCI-H23): > 100 µM (inactive)
GI50 (SK-OV-3): > 100 µM (inactive)
GI50 (RXF 393): > 100 µM (inactive)
GI50 (MOLT-4): > 87.1 µM (inactive)
GI50 (PC-3): > 100 µM (inactive)
GI50 (K562): > 100 µM (inactive)
GI50 (HT-29): > 100 µM (inactive)
GI50 (MDA-MB-231): > 100 µM (inactive)
GI50 (T47D): > 100 µM (inactive)
GI50 (SF-539): > 100 µM (inactive)
GI50 (OVCAR-5): > 100 µM (inactive)
GI50 (NCI-H226): > 62.5 µM (inactive)
GI50 (A549): > 100 µM (inactive)
GI50 (COLO 205): > 100 µM (inactive)
GI50 (SNB-19): > 100 µM (inactive)
GI50 (IGROV-1): > 100 µM (inactive)
GI50 (TK-10): > 100 µM (inactive)
GI50 (A498): > 100 µM (inactive)
GI50 (OVCAR-3): > 75.3 µM (inactive)
GI50 (BT-549): > 31.6 µM (inactive)
GI50 (UACC-257): > 100 µM (inactive)
GI50 (KM12): > 100 µM (inactive)
GI50 (SK-MEL-5): > 53.7 µM (inactive)
GI50 (SR): > 27.7 µM (inactive)
GI50 (M14): > 100 µM (inactive)
GI50 (SN12C): > 100 µM (inactive)
GI50 (MCF7): > 61.5 µM (inactive)
GI50 (ACHN): > 100 µM (inactive)
GI50 (NCI-H460): > 100 µM (inactive)
GI50 (LOX IMVI): > 100 µM (inactive)
GI50 (U-251): > 100 µM (inactive)
GI50 (SNB-75): > 32.5 µM (inactive)
GI50 (SF-295): > 100 µM (inactive)
GI50 (MDA-N): > 100 µM (inactive)
GI50 (UO-31): > 100 µM (inactive)
GI50 (HCT-116): > 100 µM (inactive)
GI50 (SK-MEL-2): > 100 µM (inactive)
GI50 (Hs-578T): > 100 µM (inactive)
GI50 (SK-MEL-28): > 100 µM (inactive)
GI50 (EKVX): > 26.2 µM (inactive)

O=S1(=O)Cc2ccc3c4c2-c2c(ccc5ccc(c-4c25)CS(=O)(=O)C3)C1
GI50 (HCC 2998): > 100 µM (inactive)
GI50 (Malme-3M): > 100 µM (inactive)
GI50 (HCT-15): 22.9 µM
GI50 (NCI/ADR-RES): > 100 µM (inactive)
GI50 (786-0): 49.5 µM (inactive)
GI50 (OVCAR-8): 90.2 µM (inactive)
GI50 (MDA-MB-435): > 100 µM (inactive)
GI50 (OVCAR-4): > 100 µM (inactive)
GI50 (DU-145): > 100 µM (inactive)
GI50 (HL-60): 16.3 µM (inactive)
GI50 (SW-620): 71 µM (inactive)
GI50 (UACC-62): 87.1 µM (inactive)
GI50 (NCI-H522): 46.8 µM (inactive)
GI50 (SF-268): 53.1 µM (inactive)
GI50 (HOP-62): > 100 µM (inactive)
GI50 (SK-OV-3): > 100 µM (inactive)
GI50 (MOLT-4): 23.1 µM (inactive)
GI50 (PC-3): 93.1 µM (inactive)
GI50 (K562): 26.7 µM (inactive)
GI50 (HT-29): 57 µM (inactive)
GI50 (MDA-MB-231): > 100 µM (inactive)
GI50 (T47D): 55.3 µM (inactive)
GI50 (SF-539): 51.9 µM (inactive)
GI50 (OVCAR-5): > 100 µM (inactive)
GI50 (NCI-H226): > 100 µM (inactive)
GI50 (A549): > 100 µM (inactive)
GI50 (SNB-19): > 100 µM (inactive)
GI50 (IGROV-1): 29.8 µM (inactive)
GI50 (TK-10): 79.6 µM (inactive)
GI50 (A498): > 100 µM (inactive)
GI50 (OVCAR-3): > 100 µM (inactive)
GI50 (BT-549): 91.8 µM (inactive)
GI50 (UACC-257): > 100 µM (inactive)
GI50 (KM12): 41.9 µM (inactive)
GI50 (RPMI-8226): 20 µM (inactive)
GI50 (SR): 10.2 µM (inactive)
GI50 (M14): > 100 µM (inactive)
GI50 (SN12C): 82.4 µM (inactive)
GI50 (MCF7): 92.3 µM (inactive)
GI50 (ACHN): 20.7 µM (inactive)
GI50 (NCI-H460): 63.2 µM (inactive)
GI50 (LOX IMVI): 44.6 µM (inactive)
GI50 (U-251): > 100 µM (inactive)
GI50 (SNB-75): 69.7 µM (inactive)
GI50 (SF-295): > 100 µM (inactive)
GI50 (HOP-92): 89.9 µM (inactive)
GI50 (MDA-N): > 100 µM (inactive)
GI50 (UO-31): 43.3 µM (inactive)
GI50 (HCT-116): 46.3 µM (inactive)
GI50 (SK-MEL-2): > 100 µM (inactive)
GI50 (Hs-578T): > 100 µM (inactive)
GI50 (SK-MEL-28): > 100 µM (inactive)
GI50 (EKVX): 89.1 µM (inactive)
